Test system: pyramidal neurons of the hippocampal CA3 subfield
Test: Traumatic brain injury: delayed apoptotic neuronal death, neuronal densities in CA3 hippocampus
Format: in vivo, Adult Wistar rats
Conditions: for Neuronal densities CA3 hippocampus: traumatized right side, ± SEM
Procedure: 1. Traumatic Brain Injury: Delayed Apoptotic Neuronal Death
Contusing device. The contusing device consisted of a stainless steel tube, 40 cm in length, perforated at 1 cm intervals to prevent air compression in the tube. Adult Wistar rats, 230-270 g, were anesthetized with chloral hydrate, 400 mg/kg i.p., a craniotomy over the right hemisphere was made, the device guiding a falling weight onto the footplate resting upon the surface of the dura was placed perpendicular to the surface of the skull, and a force of 380 g×cm produced by a 20 g weight was selected to produce brain contusion. A maximum of 2.5 mm depression of the brain surface was allowed to avoid mechanical puncture of the dura. The center of the footplate was stereotaxically positioned 1.5 mm posterior and 2.5 mm lateral to the bregma. The rats underwent perfusion fixation 3 days after brain injury with a solution containing 4% paraformaldehyde in phosphate buffer.
Intracerebroventricular injections: Compounds were administered intracerebroventricularly (=i.c.v.) by means of a Hamilton syringe in a volume of 5-15 μl. Injections were performed over 5 min, 15 min-8 hrs after trauma using the following stereotaxic coordinates: AP=−0.5 mm, L=−2 mm and V=−5.5 in relation to bregma (Swanson, L. W. (1992) Brain Maps: Structure of the Rat Brain, Elsevier, Amsterdam).
Morphometric analysis in hippocampus. The damage in the hippocampal CA3 subfield was determined stereologically at 5 different rostrocaudal levels extending from 10.21 to 11.21 mm (Swanson, L. W. (1992) Brain Maps Structure of the Rat Brain, Elsevier, Amsterdam) and throughout its mediolateral axis three days after traumatic injury. To quantitatively assess neuronal loss in the hippocampus, stereological disector technique (Cruz-Orive, L. M. & Weibel, E. R. (1990) Am. J. Physiol. 258, L148-L156) was used to estimate numerical density (Nv) of pyramidal neurons. An unbiased counting frame (0.05 mm×0.05 mm; disector height 0.01 mm) and a high-aperture objective (×40) were used for sampling. Normal neurons were identified by the presence of the typical nuclei with clear nucleoplasm and distinct nucleolus surrounded by cytoplasm containing Nissl substance. The border between CA2 and CA3 subfields was considered as the point where the looser arrangement of large pyramidal cells goes into densely packed pyramidal cells of the subfield CA3. An arbitrary line connecting the lateral ends of the dentate granule cell layers was considered a junction between subfields CA3 and CA4.
Dose response of the neuroprotective effect of the test substance of Example 3 when administered i.c.v. 15 min after trauma to adult Wistar rats was measured. Neuronal densities were determined in the CA3 hippocampal subfield as described in the methods. Densities of CA3 neurons ±Standard Error of […] (=SEM) in 6 stereotactic levels in the left non-traumatized side of vehicle treated rats and the traumatized right side of vehicle treated rats and in rats treated with the test substance of Example 3 were measured and the results listed in table 6 below.
The time window of the neuroprotective effect of test substance of Example 3 when administered i.c.v. 2, 4 or 8 hrs after trauma to adult Wistar rats was measured. Neuronal densities were determined in the CA3 hippocampal subfield as described in the methods. Densities of CA3 neurons ±SEM in 6 stereotactic levels in the traumatized right side of rats treated with either vehicle or the test compound of Example 3 were measured and the results listed in table 7 below.

## CC(C)NC(=O)CC(CC1(C(=O)N[C@H]2CCc3ccccc3N(CC(=O)O)C2=O)CCCC1)C(=O)O (stereo in doubt) [Example 3, (2″rel1″)-2-{[(3S)-1-({[1-(carboxymethyl)-2-oxo-2,3,4,5-tetrahydro-1H-1-benzazepin-3-yl]amino}-carbonyl)cyclopentyl]methyl}-4-(isopropylamino)-4-oxobutyric acid]
3 μg i.c.v. 15 min after trauma, stereotactic level 10.21
  Neuronal densities CA3 hippocampus: 98.40 ± 4.39 cells × 10^3/mm^3
3 μg i.c.v. 15 min after trauma, stereotactic level 10.41
  Neuronal densities CA3 hippocampus: 89.00 ± 5.05 cells × 10^3/mm^3
3 μg i.c.v. 15 min after trauma, stereotactic level 10.61
  Neuronal densities CA3 hippocampus: 72.80 ± 6.01 cells × 10^3/mm^3
3 μg i.c.v. 15 min after trauma, stereotactic level 10.81
  Neuronal densities CA3 hippocampus: 84.20 ± 6.47 cells × 10^3/mm^3
3 μg i.c.v. 15 min after trauma, stereotactic level 11.01
  Neuronal densities CA3 hippocampus: 86.00 ± 7.44 cells × 10^3/mm^3
3 μg i.c.v. 15 min after trauma, stereotactic level 11.21
  Neuronal densities CA3 hippocampus: 95.40 ± 6.96 cells × 10^3/mm^3
10 μg i.c.v. 2, 4 or 8 hrs after trauma, P<0.001 at 2 and 4 hrs, P<0.01 for 8 hrs
  effect on hippocampal neuronal loss: partially prevented hippocampal neuronal loss
10 μg i.c.v. 15 min after trauma, stereotactic level 10.21
  Neuronal densities CA3 hippocampus: 108.60 ± 4.30 cells × 10^3/mm^3
10 μg i.c.v. 15 min after trauma, stereotactic level 10.41
  Neuronal densities CA3 hippocampus: 108.60 ± 5.34 cells × 10^3/mm^3
10 μg i.c.v. 15 min after trauma, stereotactic level 10.61
  Neuronal densities CA3 hippocampus: 111.40 ± 7.09 cells × 10^3/mm^3
10 μg i.c.v. 15 min after trauma, stereotactic level 10.81
  Neuronal densities CA3 hippocampus: 112.00 ± 6.42 cells × 10^3/mm^3
10 μg i.c.v. 15 min after trauma, stereotactic level 11.01
  Neuronal densities CA3 hippocampus: 111.40 ± 7.11 cells × 10^3/mm^3
10 μg i.c.v. 15 min after trauma, stereotactic level 11.21
  Neuronal densities CA3 hippocampus: 119.20 ± 3.70 cells × 10^3/mm^3
10 μg i.c.v. 2 hrs after trauma, stereotactic level 10.21
  Neuronal densities CA3 hippocampus: 72.30 ± 4.80 cells × 10^3/mm^3
10 μg i.c.v. 2 hrs after trauma, stereotactic level 10.41
  Neuronal densities CA3 hippocampus: 68.10 ± 6.30 cells × 10^3/mm^3
10 μg i.c.v. 2 hrs after trauma, stereotactic level 10.61
  Neuronal densities CA3 hippocampus: 60.80 ± 5.60 cells × 10^3/mm^3
10 μg i.c.v. 2 hrs after trauma, stereotactic level 10.81
  Neuronal densities CA3 hippocampus: 60.20 ± 9.40 cells × 10^3/mm^3
10 μg i.c.v. 2 hrs after trauma, stereotactic level 11.01
  Neuronal densities CA3 hippocampus: 63.00 ± 11.70 cells × 10^3/mm^3
10 μg i.c.v. 2 hrs after trauma, stereotactic level 11.21
  Neuronal densities CA3 hippocampus: 67.70 ± 14.00 cells × 10^3/mm^3
10 μg i.c.v. 4 hrs after trauma, stereotactic level 10.21
  Neuronal densities CA3 hippocampus: 72.20 ± 5.70 cells × 10^3/mm^3
10 μg i.c.v. 4 hrs after trauma, stereotactic level 10.41
  Neuronal densities CA3 hippocampus: 65.90 ± 8.80 cells × 10^3/mm^3
10 μg i.c.v. 4 hrs after trauma, stereotactic level 10.61
  Neuronal densities CA3 hippocampus: 63.00 ± 6.30 cells × 10^3/mm^3
10 μg i.c.v. 4 hrs after trauma, stereotactic level 10.81
  Neuronal densities CA3 hippocampus: 60.50 ± 10.50 cells × 10^3/mm^3
10 μg i.c.v. 4 hrs after trauma, stereotactic level 11.01
  Neuronal densities CA3 hippocampus: 62.20 ± 13.50 cells × 10^3/mm^3
10 μg i.c.v. 4 hrs after trauma, stereotactic level 11.21
  Neuronal densities CA3 hippocampus: 66.30 ± 15.90 cells × 10^3/mm^3
10 μg i.c.v. 8 hrs after trauma, stereotactic level 10.21
  Neuronal densities CA3 hippocampus: 62.00 ± 4.90 cells × 10^3/mm^3
10 μg i.c.v. 8 hrs after trauma, stereotactic level 10.41
  Neuronal densities CA3 hippocampus: 53.00 ± 6.44 cells × 10^3/mm^3
10 μg i.c.v. 8 hrs after trauma, stereotactic level 10.61
  Neuronal densities CA3 hippocampus: 53.00 ± 6.00 cells × 10^3/mm^3
10 μg i.c.v. 8 hrs after trauma, stereotactic level 10.81
  Neuronal densities CA3 hippocampus: 52.50 ± 4.48 cells × 10^3/mm^3
10 μg i.c.v. 8 hrs after trauma, stereotactic level 11.01
  Neuronal densities CA3 hippocampus: 61.80 ± 4.48 cells × 10^3/mm^3
10 μg i.c.v. 8 hrs after trauma, stereotactic level 11.21
  Neuronal densities CA3 hippocampus: 65.90 ± 4.90 cells × 10^3/mm^3
30 μg i.c.v. 15 min after trauma, stereotactic level 10.21
  Neuronal densities CA3 hippocampus: 108.40 ± 3.15 cells × 10^3/mm^3
30 μg i.c.v. 15 min after trauma, stereotactic level 10.41
  Neuronal densities CA3 hippocampus: 105.20 ± 5.76 cells × 10^3/mm^3
30 μg i.c.v. 15 min after trauma, stereotactic level 10.61
  Neuronal densities CA3 hippocampus: 94.20 ± 5.10 cells × 10^3/mm^3
30 μg i.c.v. 15 min after trauma, stereotactic level 10.81
  Neuronal densities CA3 hippocampus: 83.20 ± 7.10 cells × 10^3/mm^3
30 μg i.c.v. 15 min after trauma, stereotactic level 11.01
  Neuronal densities CA3 hippocampus: 80.20 ± 7.45 cells × 10^3/mm^3
30 μg i.c.v. 15 min after trauma, stereotactic level 11.21
  Neuronal densities CA3 hippocampus: 90.00 ± 9.24 cells × 10^3/mm^3
3, 10 or 30 μg i.c.v. 15 min after trauma, ANOVA P<0.001 for all three doses
  effect on hippocampal neuronal loss: partially prevented hippocampal neuronal loss
Administered i.c.v. up to 8 hrs after trauma
  neuroprotective effect (time window): neuroprotective effect was still evident
i.c.v. after trauma
  neuroprotective effect (dose response): dose-dependent neuroprotective effect
Of 3, 10 or 30 μg i.c.v. 15 min after trauma
  most effective dose against hippocampal neuronal loss: 10 µg

Reference: patent US20080085889A1, “Amidomethyl-Substituted 1-(Carboxyalkyl) Cyclopentyl-Carbonylamino-Benzazepine-N-Acetic Acid Compounds, Process and Intermediate Products for Their Preparation and Pharmaceutical Compositions Containing Them” (SOLVAY PHARMACEUTICALS GmbH, priority 2003, published 2008)
